{"source": "paper PMC9719791", "about": "(Science translational medicine, 2021)", "target": "SUMO activating enzyme (SAE) (Homo sapiens, UniProt Q9UBE0+Q9UBT2)", "sequence (Q9UBT2 whole entry)": "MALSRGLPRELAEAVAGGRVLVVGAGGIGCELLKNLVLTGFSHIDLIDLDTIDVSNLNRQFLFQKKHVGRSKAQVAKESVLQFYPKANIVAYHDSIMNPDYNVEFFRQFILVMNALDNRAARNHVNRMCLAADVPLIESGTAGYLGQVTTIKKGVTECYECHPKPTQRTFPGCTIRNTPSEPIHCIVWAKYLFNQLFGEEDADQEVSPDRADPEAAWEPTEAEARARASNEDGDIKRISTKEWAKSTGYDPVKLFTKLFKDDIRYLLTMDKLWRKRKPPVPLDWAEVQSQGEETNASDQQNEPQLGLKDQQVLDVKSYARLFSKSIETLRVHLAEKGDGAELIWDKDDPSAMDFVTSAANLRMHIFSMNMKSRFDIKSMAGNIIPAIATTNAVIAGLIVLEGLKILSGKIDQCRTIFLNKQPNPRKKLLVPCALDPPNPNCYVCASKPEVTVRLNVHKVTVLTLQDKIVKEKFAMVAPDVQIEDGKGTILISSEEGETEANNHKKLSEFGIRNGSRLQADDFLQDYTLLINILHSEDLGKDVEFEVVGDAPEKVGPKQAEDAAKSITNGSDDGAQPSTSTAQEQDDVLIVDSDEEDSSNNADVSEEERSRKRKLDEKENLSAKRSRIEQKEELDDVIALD", "sequence (Q9UBE0 whole entry)": "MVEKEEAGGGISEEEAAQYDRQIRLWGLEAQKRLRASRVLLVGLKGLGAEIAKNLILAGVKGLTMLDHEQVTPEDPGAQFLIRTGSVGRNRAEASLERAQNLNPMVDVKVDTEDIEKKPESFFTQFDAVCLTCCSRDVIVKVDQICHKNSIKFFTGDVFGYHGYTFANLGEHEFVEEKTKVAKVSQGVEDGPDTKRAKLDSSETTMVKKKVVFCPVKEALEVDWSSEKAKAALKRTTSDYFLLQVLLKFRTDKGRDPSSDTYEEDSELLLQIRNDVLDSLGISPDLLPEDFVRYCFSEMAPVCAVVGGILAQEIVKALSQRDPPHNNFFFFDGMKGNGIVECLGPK", "sequence (P63279 2-158 partner)": "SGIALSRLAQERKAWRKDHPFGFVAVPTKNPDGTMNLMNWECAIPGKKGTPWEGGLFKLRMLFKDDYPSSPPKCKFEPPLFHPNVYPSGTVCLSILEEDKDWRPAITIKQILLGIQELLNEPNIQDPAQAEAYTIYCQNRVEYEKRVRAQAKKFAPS", "assay": "E1-E2 HTRF transthiolation assay with recombinantly purified SAE", "format": "biochemical"}
{"smiles": "Cc1sc(C(=O)c2cncnc2N[C@@H]2C[C@H](COS(N)(=O)=O)[C@@H](O)C2)cc1[C@@H]1NCCc2ccc(Cl)cc21", "note": "[TAK-981, ((1R,2S,4R)-4-((5-(4-((1R)-7-chloro-1,2,3,4-tetrahydroisoquinolin-1-yl)-5-methylthiophene-2-carbonyl)pyrimidin-4-yl)amino)-2-hydroxycyclopentyl)methyl sulfamate]", "values": [{"measurement": "IC50", "result": 0.6, "unit": "nM"}]}
